# Results reported in patent US20260364024A1, “A SCALABLE AND CONTINUOUS METHOD TO PREPARE SOLID DRUG NANOPARTICLES FOR OCULAR DISEASE THERAPY” (The Curators of the University of Missouri, priority 2023, published 2026).
# Structures can show the parent of a compound that is named as a salt.
# What was measured:
# [1] = In vitro drug release by dialysis in PBS; type: physicochemical; details: from BT/BH solution; within 4 h, PBS pH 7.4, 37 °C, sink condition
# Protocol: The tube was then immersed in 5 mL of PBS, and the set was incubated at 37 °C with shaking (100 rpm). At predetermined intervals, 100 μL of the release medium (PBS) was withdrawn and replaced with equal volume of fresh medium. […] These experiments were carried out in triplicate.
# Because the BM/BX SDNs are composed of hydrophobic drugs, the release was expected to slow down in comparison to their hydrophilic counterparts BT and BH.
# [2] = Ex vivo cornea permeation (Franz diffusion cell); type: in vitro ADME; details: from BT/BH solution, within 4 h, 37 °C, rabbit cornea
# Protocol: After using dextran to confirm the intactness of cornea extracted from fresh rabbit eyes, that cornea was mounted between the donor chamber and receptor chamber of a Franz diffusion cell system. […] The set was incubated at 37 °C. At predetermined intervals up to 12 h, an aliquot of 100 μL was withdrawn from the receptor chamber and analyzed by LC-MS. An equal volume of fresh PBS was supplemented to the receptor chamber following each sampling. FITC-labeled Dextran was tested to confirm the intactness of the cornea, and the permeation of the FITC-labeled Dextran was quantified by measuring the fluorescence intensity of FITC (Emission: 525 nm, Excitation: 490 nm) using a microplate reader.
# [3] = eye drops, salt form; background statement; cited from earlier work
Structure (SMILES),BH released [1],hydrophilic counterpart penetrated across the cornea [2],bioavailability [3],BT released [1]
"CC(C)NCC(O)COc1ccc(CCOCC2CC2)cc1 (stereo not drawn) [BH, betaxolol hydrochloride]",> 70%,less than 10%,less than 5%,
"Brc1c(NC2=NCCN2)ccc2nccnc12.O=C(O)C(O)C(O)C(=O)O [BT, brimonidine tartrate]",,less than 10%,less than 5%,more than 60%
